Measured values published in patent US5714485A, “Piperidine and hexahydropyridazine thrombin inhibitors” (Merck & Co., Inc., priority 1997, dated 1998).
Where two headings read alike, the source gives them in different places. Values belong to the compound of their own block, whether it stands above or below them.

What was measured:
[1] = target: T1, human a-thrombin (Homo sapiens, UniProt P00734); assay: In vitro assay for determining proteinase inhibition: human a-thrombin; type: biochemical; conditions: for relative activity of diastereomers in a thrombin inhibition assay: compared with the other diastereomer
T1 construct: human a-thrombin
Experimental: Assays of human a-thrombin and bovine trypsin were performed at 25° C. in 0.05M TRIS buffer pH 7.4, 0.15M NaCl, 0.1% PEG. Trypsin assays also contained 1 mM CaCl2.
Concentrations of stock solutions of Z-GPR-afc were determined from measurements of absorbance at 380 nm of the 7-amino-4-trifluoromethyl coumarin produced upon complete hydrolysis of an aliquot of the stock solution by thrombin.
Activity assays were performed by diluting a stock solution of substrate at least tenfold to a final concentration ≥0. I Km into a solution containing enzyme or enzyme equilibrated with inhibitor. Times required to achieve equilibration between enzyme and inhibitor were determined in control experiments. Initial velocities of product formation in the absence (Vo) or presence of inhibitor (Vi) were measured. Assuming competitive inhibition, and that unity is negligible compared Km /[S], […] (where [S], [I], and e respectively represent the total concentrations, of substrate, inhibitor and enzyme), the equilibrium constant (Ki) for dissociation of the inhibitor from the enzyme can be obtained from the dependence of Vo /Vi on [I] shown in equation 1.

[2] = tested on: thrombotic occlusion of the right carotid artery; assay: In vivo rat ferric chloride assay measuring thrombotic occlusion; parameters: species or system Male Sprague-Dawley rats; conditions: FeCl3, rats
Experimental: Applicants have conducted in vivo studies of the compounds claimed herein using the following rat ferric chloride assay.
In the assay used to determine in vivo activity of the thrombin inhibitors or the invention, Male Sprague-Dawley rats (body weights 200-350 grams) were anesthetized with dial-urethane solution (0.1 ml/100 gm body weight i.p.), and a lateral tail vein was cannulated with a 23 gauge needle connected to a 12 inch length of PE50 tubing. The tubing was attached to a 3-way valve by a tubing adapter. Saline (control) or test compound, as appropriate, was administered via the tail vein catheter. A tracheostomy was performed with a 0.75 inch length of PE205 tubing. The right carotid artery was exposed and a 1.3 mm diameter Doppler flow probe was placed on the vessel. Body temperature was maintained at 37° C. using a heat lamp.
Rats (8-10/group) were randomized to continuous intravenous infusions of saline or test compound administered via the tail vein at a rate of 0.028 ml/min. Treatment infusions were initiated 120 min before the placement of a 3 mm square piece of Whatman No. 1 filter paper saturated with 35% FeCl3 onto the exposed carotid artery distal to the flow probe. […] Time to occlusion was defined as the time from application of FeCl3 to thrombotic occlusion of the vessel.

[3] = Table 1, read-out: Ki vs Thrombin
[4] = Table 1, part headed Ki (NM), read-out: Ki vs thrombin
[5] = Table 2, read-out: Ki vs thrombin
[6] = Table 2, lower part, head Ki(nM) without target, read-out: Ki

Ki [1, 3]: 152 nM
Structure (SMILES): N[C@H]1CC[C@H](CNC(=O)[C@@H]2CCCN2C(=O)C2Cc3ccccc3CN2)CC1 (some centres unmarked)

Ki [1, 3]: 2.3 nM
Structure (SMILES): CN[C@H](CC1CCCCC1)C(=O)N1CCC[C@H]1C(=O)NC[C@H]1CC[C@H](N)CC1

Ki [1, 3]: 27 nM
Structure (SMILES): N[C@H](Cc1ccc2ccccc2c1)C(=O)N1CCC[C@H]1C(=O)NC[C@H]1CC[C@H](N)CC1

Ki [1, 3]: 30 nM
Structure (SMILES): N[C@H](Cc1cccnc1)C(=O)N1CCC[C@H]1C(=O)NC[C@H]1CC[C@H](N)CC1

Ki [1, 3]: 63 nM
Structure (SMILES): N[C@H]1CC[C@H](CNC(=O)[C@@H]2CCCN2C(=O)[C@H](O)Cc2ccccc2)CC1

Ki [1, 3]: 170 nM
Structure (SMILES): CC(=O)N[C@H](Cc1ccccc1)C(=O)N1CCC[C@H]1C(=O)NC[C@H]1CC[C@H](N)CC1

Ki [1, 3]: 9.4 nM
Structure (SMILES): CC(C)(C)OC(=O)N[C@H](Cc1ccccc1)C(=O)N1CCC[C@H]1C(=O)NC[C@H]1CC[C@H](N)CC1

Ki [1, 3]: 3.7 nM
Structure (SMILES): N[C@H]1CC[C@H](CNC(=O)[C@@H]2CCCN2C(=O)[C@@H](Cc2ccccc2)NC(=O)OCc2ccccc2)CC1

Ki [1, 4]: 15 nM
Structure (SMILES): N[C@H]1CC[C@H](CNC(=O)[C@@H]2CCCN2C(=O)[C@@H](Cc2ccccc2)NC(=O)OCc2ccncc2)CC1

Ki [1, 4]: 6.8 nM
Structure (SMILES): CC(C)(C)OC(=O)N[C@@H](C(=O)N1CCC[C@H]1C(=O)NC[C@H]1CC[C@H](N)CC1)c1ccccc1

Ki [1, 4]: 12 nM
Structure (SMILES): CC(C)(C)OC(=O)N[C@H](CC1CCCCC1)C(=O)N1CCC[C@H]1C(=O)NC[C@H]1CC[C@H](N)CC1

Ki [1, 4]: 50 nM
Structure (SMILES): CC(C)(C)OC(=O)N[C@H](CCc1ccccc1)C(=O)N1CCC[C@H]1C(=O)NC[C@H]1CC[C@H](N)CC1

Ki [1, 4]: 16 nM
Structure (SMILES): N[C@H]1CC[C@H](CNC(=O)[C@@H]2CCCN2C(=O)[C@@H](Cc2c[nH]c3ccccc23)NC(=O)OCc2ccccc2)CC1

Ki [1, 3]: 8 nM
Structure (SMILES): CC(C)(C)OC(=O)N[C@@H](C(=O)N1CCC[C@H]1C(=O)NC[C@H]1CC[C@H](N)CC1)[C@@H](OC(C)(C)C)c1ccccc1

Ki [1, 3]: 3 nM
Structure (SMILES): N[C@H]1CC[C@H](CNC(=O)[C@@H]2CCCN2C(=O)[C@@H](CC2CCCCC2)NS(=O)(=O)CC(F)(F)F)CC1

Ki [1, 3]: 4 nM
Structure (SMILES): N[C@H]1CC[C@H](CNC(=O)[C@@H]2CCCN2C(=O)[C@@H](Cc2ccccc2)NCCc2ccccc2)CC1

Ki [1, 3]: 200 nM
Structure (SMILES): CC(C)(C)OC(=O)N[C@@H](C(=O)N1CCC[C@H]1C(=O)NC[C@H]1CC[C@H](N)CC1)C(OC(C)(C)C)c1ccccc1 (some centres unmarked)

Ki [1, 5]: 0.12 nM
Structure (SMILES): N[C@@H](C(=O)N1CCC[C@H]1C(=O)NC[C@H]1CC[C@H](N)CC1)C(c1ccccc1)c1ccccc1

Ki [1, 5]: 2 nM
Structure (SMILES): N[C@H]1CC[C@H](CNC(=O)[C@@H]2CCCN2C(=O)CC(c2ccccc2)c2ccccc2)CC1

Ki [1]: 0.4 nM
Structure (SMILES): N[C@H]1CC[C@H](CNC(=O)[C@@H]2CCCN2C(=O)[C@@H](Cc2ccccc2)NS(=O)(=O)Cc2ccccc2)CC1

Ki [1, 5]: 0.4 nM
Structure (SMILES): CC(C)(C)C[C@@H](NS(=O)(=O)Cc1ccccc1)C(=O)N1CCC[C@H]1C(=O)NC[C@H]1CC[C@H](N)CC1

Ki [1, 5]: 1.3 nM
Structure (SMILES): N[C@H]1CC[C@H](CNC(=O)[C@@H]2CCCN2C(=O)[C@@H](Cc2ccccc2)NCC(=O)O)CC1

Ki [1, 5]: 0.102 nM
Structure (SMILES): CC(C)(C)OC(=O)N[C@@H](C(=O)N1CCC[C@H]1C(=O)NC[C@H]1CC[C@H](N)CC1)C(c1ccccc1)c1ccccc1

Ki [1, 5]: 0.05 nM
Structure (SMILES): CC(C)(C)OC[C@@H](NS(=O)(=O)CC12CCC(CC1=O)C2(C)C)C(=O)N1CCC[C@H]1C(=O)NC[C@H]1CC[C@H](N)CC1 (some centres unmarked)

Ki [1, 5]: 0.1 nM
Structure (SMILES): CC1(C)C2CCC1(CS(=O)(=O)N[C@H](CC1CCCCC1)C(=O)N1CCC[C@H]1C(=O)NC[C@H]1CC[C@H](N)CC1)C(=O)C2 (some centres unmarked)

Structure (SMILES): N[C@H]1CC[C@H](CNC(=O)[C@@H]2CCCN2C(=O)C2(O)c3ccccc3-c3ccccc32)CC1
Ki [1, 6]: 1.5 nM

Ki [1, 6]: 55 nM
Structure (SMILES): N[C@H]1CC[C@H](CNC(=O)[C@@H]2CCCN2C(=O)C2COc3ccccc3O2)CC1 (some centres unmarked)

Structure (SMILES): N[C@H]1CC[C@H](CNC(=O)[C@@H]2CCCN2C(=O)C2(O)c3ccccc3Sc3ccccc32)CC1
Ki [1]: 3 nM

Ki [1, 6]: 0.13 nM
Structure (SMILES): N[C@H]1CC[C@H](CNC(=O)[C@@H]2CCCN2C(=O)[C@H](NCC(=O)O)C(c2ccc(Cl)cc2)c2ccc(Cl)cc2)CC1

relative activity of diastereomers in a thrombin inhibition assay [1]: more active isomer
Structure (SMILES): N[C@@H](C(=O)N1CCC[C@H]1C(=O)NC[C@H]1CC[C@H](N)CC1)C(c1ccccc1)c1ccccc1 (single isomer, unassigned) [Example 7 less polar diastereomer, trans-4-Aminocyclohexylmethyl L- and D-(3,3)-diphenyl alanyl-L-proline amide]

relative activity of diastereomers in a thrombin inhibition assay [1]: more active isomer
Structure (SMILES): N[C@H]1CC[C@H](CNC(=O)[C@@H]2CCCN2C(=O)[C@H](NS(=O)(=O)Cc2ccccc2)C(c2ccccc2)c2ccccc2)CC1 (single isomer, unassigned) [Example 9 less polar diastereomer, trans-4-Amino-cyclohexylmethyl N-(benzylsulfonyl)-D and L-3,3-diphenylalanyl-L-proline amide]

Ki [1, 3]: 2.9 nM
Structure (SMILES): CN[C@H](Cc1ccc(Cl)c(Cl)c1)C(=O)N1CCC[C@H]1C(=O)NC[C@H]1CC[C@H](N)CC1 [3,4-Cl2PhCH2, CH3 NH]

Ki [1, 3]: 414 nM
Structure (SMILES): N[C@H]1CC[C@H](CNC(=O)[C@@H]2CCCN2C(=O)CCc2ccc(Cl)c(Cl)c2)CC1 [3,4-Cl2PhCH2, H]

Ki [1, 3]: 1.5 nM
Structure (SMILES): N[C@H](Cc1ccc(Cl)c(Cl)c1)C(=O)N1CCC[C@H]1C(=O)NC[C@H]1CC[C@H](N)CC1 [3,4-Cl2PhCH2, NH2]

Ki [1, 4]: 6 nM
Structure (SMILES): CC(C)(C)OC[C@@H](NC(=O)OC(C)(C)C)C(=O)N1CCC[C@H]1C(=O)NC[C@H]1CC[C@H](N)CC1 [BocNH, CH2 O-tBu]

Ki [1, 3]: 150 nM
Structure (SMILES): N[C@H]1CC[C@H](CNC(=O)[C@@H]2CCCN2C(=O)CCC2CCCCC2)CC1 [C6 H11 CH2, H]

Ki [1, 4]: 2.3 nM
Structure (SMILES): CC(C)(C)C[C@@H](NC(=O)OCc1ccccc1)C(=O)N1CCC[C@H]1C(=O)NC[C@H]1CC[C@H](N)CC1 [CbzNH, CH2 -tBu]

Ki [1, 3]: > 10000 nM
Structure (SMILES): CC(=O)N1CCC[C@H]1C(=O)NC[C@H]1CC[C@H](N)CC1 [H, H]

Ki [1, 3]: 17 nM
Structure (SMILES): CS(=O)(=O)N[C@H](Cc1ccccc1)C(=O)N1CCC[C@H]1C(=O)NC[C@H]1CC[C@H](N)CC1 [PhCH2, CH3 SO2 NH]

Ki [1, 3]: 680 nM
Structure (SMILES): N[C@H]1CC[C@H](CNC(=O)[C@@H]2CCCN2C(=O)CCc2ccccc2)CC1 [PhCH2, H]

Ki [1, 3]: 3.4 nM
Structure (SMILES): N[C@H](Cc1ccccc1)C(=O)N1CCC[C@H]1C(=O)NC[C@H]1CC[C@H](N)CC1 [PhCH2, NH2]

Ki [1, 6]: 0.17 nM
Structure (SMILES): N[C@H]1CC[C@H](CNC(=O)[C@@H]2CCCN2C(=O)[C@H](NCC(=O)O)C(c2ccccc2)c2ccccc2)CC1 [drawing 39]

Ki [1, 6]: 0.05 nM
Structure (SMILES): C[C@@H](N[C@@H](C(=O)N1CCC[C@H]1C(=O)NC[C@H]1CC[C@H](N)CC1)C(c1ccccc1)c1ccccc1)C(=O)O [drawing 41]

Structure (SMILES): N[C@H]1CC[C@H](CNC(=O)[C@@H]2CCCN2C(=O)[C@H](NCC(=O)O)C(c2ccccc2)c2ccccc2)CC1 [drawing 47]
Incidence of occlusion ([2]; i.v. dose 1 μg/kg/min): 1/6
Incidence of occlusion ([2]; i.v. dose 10 μg/kg/min): 0/6

Structure (SMILES): C[C@@H](N[C@@H](C(=O)N1CCC[C@H]1C(=O)NC[C@H]1CC[C@H](N)CC1)C(c1ccccc1)c1ccccc1)C(=O)O [drawing 48]
Incidence of occlusion ([2]; i.v. dose 1 μg/kg/min): 1/6
Incidence of occlusion ([2]; i.v. dose 10 μg/kg/min): 0/6
